In US20120245154A1, “SUBSTITUTED AMINOTHIAZINE DERIVATIVE” (SHIONOGI & CO., LTD., priority 2009, published 2012):

Columns and labels:
CYP2C19 = target: T1, CYP2C19 (Homo sapiens, UniProt P33261); assay: CYP inhibition test (mephenyloin 4′-hydroxylation); format: in vitro ADME; settings: pooled human hepatic microsome, 50 μmol/L S-mephenitoin
T1 construct: enzyme, pooled human hepatic microsome 0.2 mg protein/mL; from tissue; host or cells: pooled human hepatic microsomes
Procedure: (§1) Using commercially available pooled human hepatic microsome, and employing, as markers, 7-ethoxyresorufin O-deethylation (CYP1A2), tolbutamide methyl-hydroxylation (CYP2C9), mephenyloin 4′-hydroxylation (CYP2C19), dextromethorphan O-demethylation (CYP2D6), and terfenedine hydroxylation (CYP3A4) as typical substrate metabolism reactions of human main five CYP enzyme forms (CYP1A2, 2C9, 2C19, 2D6, 3A4), an inhibitory degree of each metabolite production amount by a test compound was assessed. […]
(§2) Each five kinds of substrates, human hepatic microsome, or a test drug in 50 mM Hepes buffer as a reaction solution was added to a 96-well plate at the composition as described above, NADPH, as a cofactor was added to initiate metabolism reactions as markers and, after the incubation at 37° C. for 15 minutes, a methanol/acetonitrile=1/1 (v/v) solution was added to stop the reaction. After the centrifugation at 3000 rpm for 15 minutes, resorufin (CYP1A2 metabolite) in the supernatant was quantified by a fluorescent multilabel counter and tributamide hydroxide (CYP2CP metabolite), mephenyloin 4′ hydroxide (CYP2C19 metabolite), […], and terfenadine alcohol (CYP3A4 metabolite) were quantified by LC/MS/MS. […]

CYP2C9 = target: T2, CYP2C9 (Homo sapiens, UniProt P11712); assay: CYP inhibition test (tolbutamide methyl-hydroxylation); format: in vitro ADME; settings: pooled human hepatic microsome
T2 construct: enzyme, pooled human hepatic microsome 0.2 mg protein/mL; from tissue; host or cells: pooled human hepatic microsomes
Procedure: as §1, §2

CYP3A4 [1] = target: T3, CYP3A4 (Homo sapiens, UniProt P08684); assay: CYP inhibition test (terfenedine hydroxylation); format: in vitro ADME; parameters: enzyme, pooled human hepatic microsome 0.2 mg protein/mL; from tissue; host or cells: pooled human hepatic microsomes; settings: pooled human hepatic microsome, 1 μmol/L terfenedine
Procedure: as §1, §2

CYP1A2 = target: T4, CYP1A2 (Homo sapiens, UniProt P05177); assay: CYP inhibition test (7-ethoxyresorufin O-deethylation); format: in vitro ADME; settings: pooled human hepatic microsome, 0.5 μmol/L ethoxyresorufin
T4 construct: enzyme, pooled human hepatic microsome 0.2 mg protein/mL; from tissue; host or cells: pooled human hepatic microsomes
T4 sequence (P05177 1-516): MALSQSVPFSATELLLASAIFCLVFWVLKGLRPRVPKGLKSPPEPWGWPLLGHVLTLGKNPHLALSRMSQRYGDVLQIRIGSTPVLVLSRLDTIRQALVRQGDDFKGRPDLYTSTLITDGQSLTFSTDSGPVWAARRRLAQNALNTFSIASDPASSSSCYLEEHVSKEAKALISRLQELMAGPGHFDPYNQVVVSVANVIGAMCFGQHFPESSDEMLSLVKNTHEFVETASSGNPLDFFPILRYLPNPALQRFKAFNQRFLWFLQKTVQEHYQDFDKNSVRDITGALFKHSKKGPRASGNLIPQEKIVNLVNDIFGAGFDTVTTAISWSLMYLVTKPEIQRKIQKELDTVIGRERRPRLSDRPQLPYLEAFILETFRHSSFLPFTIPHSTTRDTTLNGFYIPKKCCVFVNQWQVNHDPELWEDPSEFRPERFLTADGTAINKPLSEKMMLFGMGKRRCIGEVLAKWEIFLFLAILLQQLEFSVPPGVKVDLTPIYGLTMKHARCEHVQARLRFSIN
Procedure: as §1, §2

CYP2D6 = target: T5, CYP2D6 (Homo sapiens, UniProt P10635); assay: CYP inhibition test (dextromethorphan O-demethylation); format: in vitro ADME; settings: pooled human hepatic microsome, 5 μmol/L dextromethorphan
T5 construct: enzyme, pooled human hepatic microsome 0.2 mg protein/mL; from tissue; host or cells: pooled human hepatic microsomes
Procedure: as §1, §2

Solubility test = format: physicochemical; settings: JP-I medium, pH 1.2, simulated gastric fluid, kinetic from dmso stock, from turbidity after 4 hours, read-out: solubility assessed by 3 stages
Procedure: A 2-fold dilution series (12 points) of a 10 mM solution of a test compound in DMSO was added to a medium (JP-I, JP-II) (2%), and solubility was assessed by 3 stages (High; >40 μM, Medium; 3-40 μM, Low; <3 μM) from a turbidity after 4 hours (crystallization information).
The preparation method of solution was as follows: A 10 mM solution of the compound was prepared with DMSO, and 6 μL of the compound solution was added to 594 μL of an artificial intestinal juice (water and 118 mL of 0.2 mol/L NaOH reagent were added to 250 mL of 0.2 mol/L potassium dihydrogen phosphate reagent to reach 1000 mL) with a pH of 6.8. The mixture was left standing for 16 hours at 25° C., and the mixture was vacuum-filtered. The filtrate was two-fold diluted with methanol/water=1/1.

Recombinant human BACE1 = target: T6, Recombinant human BACE1 (Homo sapiens, UniProt P56817); assay: Assay of BACE1 inhibiting activity; format: biochemical; settings: Recombinant human BACE1 7.4 nM, substrate peptide 18 nM, pH 5.0, 30° C., 3 hours; read-out: IC50 (50% inhibitory concentration against the enzymatic activity)
T6 construct: purchased R&D Systems
Procedure: 48.5 μL of substrate peptide solution (Biotin-XSEVNLDAEFRHDSGC-Eu: X=ε-amino-n-capronic acid, Eu=Europium cryptate) was added to each well of 96-hole half-area plate (a black plate: Corning Incorporated), and after addition of 0.5 μl of the test compound (dissolved in […]) and 1 μl of Recombinant human BACE1(R&D Systems), the reaction mixture was incubated at 30° C. for 3 hours. The substrate peptide was synthesized by reacting Cryptate TBPCOOH mono SMP (CIS bio international) with Biotin-XSEVNLDAEFRHDSGC (Peptide Institute, Inc.). […]
After the incubation for reaction, 50 μl of 8.0 μg/ml Streptavidin-XL665(CIS bio international) dissolved in phosphate buffer (150 mM K2HPO4—KH2PO4, pH 7.0, 0.008% Triton X-100, 0.8 M KF) was added to each well and left stand at 30° C. for an hour. After then, fluorescence intensity was measured (excitation wavelength: 320 nm, measuring wavelength: 620 nm and 665 nm) using Wallac 1420 multilabel counter (Perkin Elmer life sciences). Enzymatic activity was determined from counting ratio of each wavelength (10,000×Count 665/Count 620) and 50% inhibitory concentration against the enzymatic activity was calculated.

[2] = tested on: Neuroblastoma SH-SY5Y cells (SH/APPwt) with human wild-type β-APP excessively expressed; assay: Measurement of β-amyloid (Aβ) production inhibitory effect in cell; format: cell-based; settings: 24 hours, Aβ 1-40 in culture supernatant by HTRF, read-out: IC50 (amount needed to inhibit Aβ production by 50%)
Procedure: Neuroblastoma SH-SY5Y cells (SH/APPwt) with human wild-type β-APP excessively expressed therein were prepared at 8×10^5 cells/mL, and 150 μl portions thereof were inoculated into respective wells of a 96-well culture plate (Falcon). The cells were cultured for 2 hours at 37° C. in a 5% gaseous carbon dioxide incubator. Then, a solution which had been preliminarily prepared by adding and suspending the test compound (DMSO (dimethyl sulfoxide) solution) so as to be 2 μl/50 μl medium was added to the cell sap. Namely, the final DMSO concentration was 1%, and the amount of the cell culture was 200 μl. After the incubation was performed for 24 hours from the addition of the test compound, 100 μl of the culture supernatant was collected from each fraction. The amount of the Aβ in each fraction was measured.
The Aβ amount was measured as follows. 10 μl of a homogeneous time resolved fluorescence (HTRF) measurement reagent (Amyloid-β 1-40 peptide; IBA Molecular Holding, S.A.) and 10 μl of the culture supernatant were put into a 384-well half area microplate (black microplate, Costar) and mixed with each other, and then left standing overnight at 4° C. while the light was shielded. Then, the fluorescence intensity (excitation wavelength: 337 nm, measurement wavelength: 620 nm and 665 nm) was measured with a Wallac 1420 multilabel counter (Perkin Elmer life sciences). […]

[3] = Metabolism stability test; format: in vitro ADME; settings: human liver microsomes 0.5 mg protein/mL, 1 mmol/L NADPH, 37° C., 30 minutes
Procedure: Using a commercially available pooled human hepatic microsomes, a test compound was reacted for a constant time, a remaining rate was calculated by comparing a reacted sample and an unreacted sample, thereby, a degree of metabolism in liver was assessed.
A reaction was performed (oxidative reaction) at 37° C. for 0 minute or 30 minutes in the presence of 1 mmol/L NADPH in 0.2 mL of a buffer (50 mmol/L Tris-HCl pH 7.4, 150 mmol/L potassium chloride, 10 mmol/L magnesium chloride) containing 0.5 mg protein/mL of human liver microsomes. After the reaction, 50 μL of the reaction solution was added to 100 μL of a methanol/acetonitrile=1/1 (v/v), mixed and centrifuged at 3000 rpm for 15 minutes. The test compound in the supernatant was quantified by LC/MS/MS, and a remaining amount of the test compound after the reaction was calculated, letting a compound amount at 0 minute reaction time to be 100%.

CYP3A4 [4] = target: T3, CYP3A4; assay: CYP3A4 fluorescent MBI test; format: in vitro ADME; parameters: host or cells: Escherichia coli; settings: CYP3A4 expressed in Escherichia coli, substrate 7-BFC
Procedure: The CYP3A4 fluorescent MBI test is a test of investigating enhancement of CYP3A4 inhibition of a compound by a metabolism reaction, and the test was performed using, as CYP3A4 enzyme expressed in Escherichia coli and employing, as an index, a reaction in which 7-benzyloxytrifluoromethylchmarin (7-BFC) is debenzylated by the CYP3A4 enzyme to produce a metabolite, 7-hydroxytrifluoromethylchmarin (HFC) emitting fluorescent light.
The reaction conditions were as follows: substrate, 5.6 μmol/L 7-BFC; pre-reaction time, 0 or 30 minutes; reaction time, 15 minutes; reaction temperature, 25° C. […]
An enzyme in a K-Pi buffer (pH 7.4) and a test drug solution as a pre-reaction solution were added to a 96-well plate at the composition of the pre-reaction, a part of it was transferred to another 96-well plate so that it was 1/10 diluted by a substrate in a K-Pi buffer, NADPH as a co-factor was added to initiate a reaction as an index (without preincubation) and, after a predetermined time of a reaction, acetonitrile/0.5 mol/L Tris (trishydroxyaminomethane)=4/1 was added to stop the reaction. […] For the plate on which each index reaction had been performed, a fluorescent value of 7-HFC which is a metabolite was measured with a fluorescent plate reader. […]

T3 sequence (P08684 whole entry): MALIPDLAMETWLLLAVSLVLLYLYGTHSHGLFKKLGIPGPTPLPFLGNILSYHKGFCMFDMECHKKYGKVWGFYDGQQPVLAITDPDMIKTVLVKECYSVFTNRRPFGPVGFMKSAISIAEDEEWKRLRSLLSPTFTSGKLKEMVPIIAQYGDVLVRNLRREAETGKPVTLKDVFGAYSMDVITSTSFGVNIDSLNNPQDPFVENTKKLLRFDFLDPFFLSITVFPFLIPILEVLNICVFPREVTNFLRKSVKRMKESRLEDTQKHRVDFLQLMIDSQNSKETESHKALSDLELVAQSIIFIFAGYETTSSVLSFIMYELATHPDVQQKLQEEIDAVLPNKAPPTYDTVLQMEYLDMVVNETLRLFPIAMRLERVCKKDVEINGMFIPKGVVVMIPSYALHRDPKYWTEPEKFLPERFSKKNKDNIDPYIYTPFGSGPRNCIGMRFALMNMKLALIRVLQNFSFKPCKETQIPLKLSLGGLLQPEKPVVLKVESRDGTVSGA
T5 sequence (P10635 whole entry): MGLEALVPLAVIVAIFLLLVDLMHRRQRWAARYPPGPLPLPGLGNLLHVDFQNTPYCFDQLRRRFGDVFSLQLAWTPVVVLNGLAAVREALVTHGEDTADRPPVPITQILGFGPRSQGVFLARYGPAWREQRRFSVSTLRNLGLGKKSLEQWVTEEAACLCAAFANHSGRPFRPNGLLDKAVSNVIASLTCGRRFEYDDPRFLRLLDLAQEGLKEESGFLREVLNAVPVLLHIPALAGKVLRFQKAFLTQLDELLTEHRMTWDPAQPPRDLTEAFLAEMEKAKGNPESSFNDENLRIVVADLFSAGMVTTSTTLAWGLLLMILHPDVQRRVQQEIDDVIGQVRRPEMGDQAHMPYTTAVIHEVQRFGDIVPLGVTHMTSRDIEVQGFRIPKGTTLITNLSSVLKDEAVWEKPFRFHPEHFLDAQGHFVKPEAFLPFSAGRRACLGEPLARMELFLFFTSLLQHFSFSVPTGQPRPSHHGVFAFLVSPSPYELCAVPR
T2 sequence (P11712 whole entry): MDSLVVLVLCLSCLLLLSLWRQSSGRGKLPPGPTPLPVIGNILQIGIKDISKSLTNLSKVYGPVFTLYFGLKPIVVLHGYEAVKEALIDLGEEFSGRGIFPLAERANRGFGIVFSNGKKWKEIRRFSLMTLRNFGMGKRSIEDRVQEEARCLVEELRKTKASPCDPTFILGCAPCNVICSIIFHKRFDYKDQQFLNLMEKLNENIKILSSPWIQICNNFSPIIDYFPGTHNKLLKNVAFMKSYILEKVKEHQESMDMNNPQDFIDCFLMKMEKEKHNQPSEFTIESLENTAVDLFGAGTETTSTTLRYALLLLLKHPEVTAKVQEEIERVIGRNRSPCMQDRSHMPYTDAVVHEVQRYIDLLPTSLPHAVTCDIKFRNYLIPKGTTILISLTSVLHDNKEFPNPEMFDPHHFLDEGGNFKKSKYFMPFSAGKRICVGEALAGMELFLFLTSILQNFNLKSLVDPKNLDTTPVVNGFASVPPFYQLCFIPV
T1 sequence (P33261 whole entry): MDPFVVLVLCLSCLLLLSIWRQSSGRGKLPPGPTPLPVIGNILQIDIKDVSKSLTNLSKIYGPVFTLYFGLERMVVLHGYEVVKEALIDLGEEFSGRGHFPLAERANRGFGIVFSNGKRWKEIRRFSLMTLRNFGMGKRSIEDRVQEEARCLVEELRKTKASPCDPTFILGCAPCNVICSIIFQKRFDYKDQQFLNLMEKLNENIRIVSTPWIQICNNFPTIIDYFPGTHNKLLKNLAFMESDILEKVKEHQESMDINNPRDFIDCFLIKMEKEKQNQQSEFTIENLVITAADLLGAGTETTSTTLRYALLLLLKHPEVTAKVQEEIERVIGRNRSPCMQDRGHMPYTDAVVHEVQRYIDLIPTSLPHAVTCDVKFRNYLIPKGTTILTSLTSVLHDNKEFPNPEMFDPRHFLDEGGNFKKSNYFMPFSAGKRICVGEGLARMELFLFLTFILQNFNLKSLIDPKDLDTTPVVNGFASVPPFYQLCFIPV
T6 sequence (P56817 46-501): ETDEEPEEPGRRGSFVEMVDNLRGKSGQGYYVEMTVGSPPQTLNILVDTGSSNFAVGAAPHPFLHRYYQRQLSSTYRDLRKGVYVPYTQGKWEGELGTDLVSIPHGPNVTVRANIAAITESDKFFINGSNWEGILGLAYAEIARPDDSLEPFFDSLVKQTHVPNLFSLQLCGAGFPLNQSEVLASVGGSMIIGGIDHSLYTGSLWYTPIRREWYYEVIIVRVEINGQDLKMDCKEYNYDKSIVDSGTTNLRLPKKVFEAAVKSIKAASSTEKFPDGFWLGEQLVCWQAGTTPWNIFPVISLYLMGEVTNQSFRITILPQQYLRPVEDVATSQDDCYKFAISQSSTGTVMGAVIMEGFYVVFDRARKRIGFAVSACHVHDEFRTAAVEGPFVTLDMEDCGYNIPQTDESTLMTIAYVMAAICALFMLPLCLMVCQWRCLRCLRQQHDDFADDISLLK

For `COCCNC(=O)C1=C[C@@](C)(c2cc(NC(=O)c3ccc(C#N)cn3)ccc2F)N=C(N)S1` [Compound I-2], the IC50 (CYP2C19) was > 21 µM, the IC50 (CYP2C9) was > 21 µM and the IC50 (CYP3A4 [1]) was > 21 µM. For the same compound, the IC50 (CYP1A2) was > 21 µM and the IC50 (CYP2D6) was > 21 µM.
With `C[C@@]1(c2cc(NC(=O)c3ccc(C#N)cn3)ccc2F)C=C(CO)SC(N)=N1` [Compound I-6] the solubility at 4 h (Solubility test) was > 40 µM.
In the case of `CCC1=C[C@@](C)(c2cc(NC(=O)c3ccc(C#N)cn3)ccc2F)N=C(N)S1` [Compound I-8], the IC50 (Recombinant human BACE1) is reported as 0.012 µM and the IC50 [2] is reported as 0.002 µM.
For `COc1cnc(C(=O)Nc2ccc(F)c([C@]3(C)C=C(C(C)(C)O)SC(N)=N3)c2)cn1` [Compound I-19], the “remaining amount of the test compound after the reaction” value [3] was 96.4%.
In the case of `C[C@@]1(c2cc(NC(=O)c3ccc(C#N)cn3)ccc2F)C=C(c2ccccn2)SC(N)=N1` [Compound I-20], the “CYP3A4 MBI: difference between IC50 values (pre-reaction time 0 or 30 minutes)” value (CYP3A4 [4]) is reported as “(−) (when the difference is 3 μM or less, this was defined as (−))”.
